Key:
Type in all cases: biochemical
LCK = LCK (Homo sapiens, UniProt P06239); assay: Inhibition of a panel of kinases, in vitro HotSpot kinase assay: LCK; details: D-compounds panel data; 1 μM ATP; read-out: IC50 LCK
SRC = SRC (Homo sapiens, UniProt P12931); assay: Inhibition of a panel of kinases, in vitro HotSpot kinase assay: SRC; details: D-compounds panel data; 1 μM ATP
Description: (§1) The degree of inhibition of a panel of kinases is determined using the in vitro HotSpot kinase assay (purified enzymes, ^33P-ATP, an appropriate substrate and 1 μM ATP).

JAK3 = biological target: T1, JAK3 (Homo sapiens, UniProt P52333); assay: Inhibition of a panel of kinases, in vitro HotSpot kinase assay: JAK3; details: D-compounds panel data; 1 μM ATP; read-out: IC50 JAK3
T1 sequence (P52333 1-1124): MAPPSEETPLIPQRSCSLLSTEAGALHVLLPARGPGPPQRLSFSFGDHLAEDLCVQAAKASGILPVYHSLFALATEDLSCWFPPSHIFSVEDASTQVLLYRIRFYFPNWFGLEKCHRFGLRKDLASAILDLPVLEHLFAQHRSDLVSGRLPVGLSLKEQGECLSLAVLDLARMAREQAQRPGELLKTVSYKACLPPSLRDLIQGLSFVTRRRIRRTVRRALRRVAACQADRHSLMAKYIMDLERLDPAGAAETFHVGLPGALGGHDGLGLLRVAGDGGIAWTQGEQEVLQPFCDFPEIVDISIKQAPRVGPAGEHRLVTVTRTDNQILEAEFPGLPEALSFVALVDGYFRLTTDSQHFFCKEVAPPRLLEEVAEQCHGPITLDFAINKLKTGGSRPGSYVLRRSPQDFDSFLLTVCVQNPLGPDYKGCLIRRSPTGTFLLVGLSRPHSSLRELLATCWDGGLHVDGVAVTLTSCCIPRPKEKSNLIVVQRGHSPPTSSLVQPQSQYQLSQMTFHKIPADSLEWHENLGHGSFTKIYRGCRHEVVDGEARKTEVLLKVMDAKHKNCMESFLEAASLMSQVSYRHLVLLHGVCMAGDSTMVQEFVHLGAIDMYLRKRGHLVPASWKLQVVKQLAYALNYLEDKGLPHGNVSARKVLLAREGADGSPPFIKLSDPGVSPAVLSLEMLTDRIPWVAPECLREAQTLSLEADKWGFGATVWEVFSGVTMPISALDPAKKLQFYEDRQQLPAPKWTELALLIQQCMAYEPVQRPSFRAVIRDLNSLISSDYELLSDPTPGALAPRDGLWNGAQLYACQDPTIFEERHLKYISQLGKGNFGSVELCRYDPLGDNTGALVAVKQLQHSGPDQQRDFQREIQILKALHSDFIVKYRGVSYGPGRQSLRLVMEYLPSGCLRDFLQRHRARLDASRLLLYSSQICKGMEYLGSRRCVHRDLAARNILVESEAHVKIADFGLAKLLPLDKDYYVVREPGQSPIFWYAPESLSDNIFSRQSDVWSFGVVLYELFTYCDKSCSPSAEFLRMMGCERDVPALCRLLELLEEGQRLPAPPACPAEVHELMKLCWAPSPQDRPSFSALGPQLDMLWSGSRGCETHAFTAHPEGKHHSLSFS

EGFR = EGFR (Homo sapiens, UniProt P00533); assay: Inhibition of a panel of kinases, in vitro HotSpot kinase assay: EGFR; details: D-compounds panel data; 1 μM ATP
Sequence of EGFR (P00533 25-1210): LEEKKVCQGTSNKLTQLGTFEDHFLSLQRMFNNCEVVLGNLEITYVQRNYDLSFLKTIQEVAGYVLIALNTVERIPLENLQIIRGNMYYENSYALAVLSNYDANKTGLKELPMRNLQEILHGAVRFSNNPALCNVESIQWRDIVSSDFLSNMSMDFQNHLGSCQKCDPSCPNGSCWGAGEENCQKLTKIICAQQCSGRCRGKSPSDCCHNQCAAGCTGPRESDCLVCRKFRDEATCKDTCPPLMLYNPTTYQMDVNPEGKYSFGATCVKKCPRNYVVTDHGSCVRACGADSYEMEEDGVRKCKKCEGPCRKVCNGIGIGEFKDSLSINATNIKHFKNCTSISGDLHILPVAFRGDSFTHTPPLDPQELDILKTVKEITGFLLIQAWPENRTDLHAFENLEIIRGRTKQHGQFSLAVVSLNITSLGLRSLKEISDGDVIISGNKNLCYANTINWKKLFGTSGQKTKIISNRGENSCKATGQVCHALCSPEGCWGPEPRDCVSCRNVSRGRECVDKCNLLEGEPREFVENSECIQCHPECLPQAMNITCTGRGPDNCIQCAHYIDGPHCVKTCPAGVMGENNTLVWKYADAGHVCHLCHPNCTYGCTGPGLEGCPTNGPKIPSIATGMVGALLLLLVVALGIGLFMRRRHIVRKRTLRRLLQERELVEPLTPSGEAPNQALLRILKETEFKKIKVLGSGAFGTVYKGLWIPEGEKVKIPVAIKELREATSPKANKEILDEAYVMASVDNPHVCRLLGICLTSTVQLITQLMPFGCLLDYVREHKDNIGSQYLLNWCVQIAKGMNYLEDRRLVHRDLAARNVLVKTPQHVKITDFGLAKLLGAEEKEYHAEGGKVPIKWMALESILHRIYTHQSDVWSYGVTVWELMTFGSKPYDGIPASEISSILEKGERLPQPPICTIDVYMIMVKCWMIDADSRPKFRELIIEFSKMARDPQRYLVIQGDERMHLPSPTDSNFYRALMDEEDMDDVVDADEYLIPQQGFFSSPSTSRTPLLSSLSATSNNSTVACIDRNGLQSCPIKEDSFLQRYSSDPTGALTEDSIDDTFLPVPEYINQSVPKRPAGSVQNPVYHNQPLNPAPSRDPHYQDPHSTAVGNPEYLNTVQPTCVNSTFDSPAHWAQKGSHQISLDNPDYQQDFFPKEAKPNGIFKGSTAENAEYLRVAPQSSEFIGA
Description: as §1

TEC = biological target: T2, TEC (Homo sapiens, UniProt P42680); assay: Inhibition of a panel of kinases, in vitro HotSpot kinase assay: TEC; details: D-compounds panel data; 1 μM ATP
T2 sequence (P42680 1-631): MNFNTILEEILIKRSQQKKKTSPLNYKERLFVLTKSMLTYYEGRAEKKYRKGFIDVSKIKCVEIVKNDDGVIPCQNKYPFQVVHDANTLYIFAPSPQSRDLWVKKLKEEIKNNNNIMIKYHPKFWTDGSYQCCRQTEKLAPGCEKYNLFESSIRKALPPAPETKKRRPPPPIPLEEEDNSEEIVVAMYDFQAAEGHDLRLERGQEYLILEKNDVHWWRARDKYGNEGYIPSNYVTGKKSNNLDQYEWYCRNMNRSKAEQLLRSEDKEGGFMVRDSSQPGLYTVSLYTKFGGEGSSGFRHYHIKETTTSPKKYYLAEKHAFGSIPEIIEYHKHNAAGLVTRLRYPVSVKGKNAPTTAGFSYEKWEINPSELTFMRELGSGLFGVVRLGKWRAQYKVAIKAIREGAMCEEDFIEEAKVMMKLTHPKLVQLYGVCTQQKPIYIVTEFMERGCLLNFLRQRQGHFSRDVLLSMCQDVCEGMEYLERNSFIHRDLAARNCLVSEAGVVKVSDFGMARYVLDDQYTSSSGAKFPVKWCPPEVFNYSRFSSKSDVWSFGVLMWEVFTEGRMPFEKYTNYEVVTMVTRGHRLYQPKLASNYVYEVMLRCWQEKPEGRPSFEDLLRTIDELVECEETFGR
Description: as §1

Sequence of SRC (P12931 whole entry): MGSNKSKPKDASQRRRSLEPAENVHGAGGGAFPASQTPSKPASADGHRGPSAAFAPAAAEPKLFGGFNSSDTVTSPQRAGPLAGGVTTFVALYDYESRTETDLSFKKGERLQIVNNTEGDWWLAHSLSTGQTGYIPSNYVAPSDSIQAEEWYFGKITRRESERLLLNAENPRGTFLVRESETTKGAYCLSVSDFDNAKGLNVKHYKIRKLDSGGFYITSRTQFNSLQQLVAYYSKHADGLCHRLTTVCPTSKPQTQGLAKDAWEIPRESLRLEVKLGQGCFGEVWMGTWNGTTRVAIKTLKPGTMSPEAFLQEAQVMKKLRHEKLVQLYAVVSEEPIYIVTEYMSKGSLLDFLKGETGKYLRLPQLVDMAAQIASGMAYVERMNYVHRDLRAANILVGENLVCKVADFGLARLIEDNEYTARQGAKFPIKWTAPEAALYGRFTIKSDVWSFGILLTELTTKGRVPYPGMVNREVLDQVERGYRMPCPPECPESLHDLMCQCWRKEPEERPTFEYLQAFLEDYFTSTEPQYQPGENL
Sequence of LCK (P06239 whole entry): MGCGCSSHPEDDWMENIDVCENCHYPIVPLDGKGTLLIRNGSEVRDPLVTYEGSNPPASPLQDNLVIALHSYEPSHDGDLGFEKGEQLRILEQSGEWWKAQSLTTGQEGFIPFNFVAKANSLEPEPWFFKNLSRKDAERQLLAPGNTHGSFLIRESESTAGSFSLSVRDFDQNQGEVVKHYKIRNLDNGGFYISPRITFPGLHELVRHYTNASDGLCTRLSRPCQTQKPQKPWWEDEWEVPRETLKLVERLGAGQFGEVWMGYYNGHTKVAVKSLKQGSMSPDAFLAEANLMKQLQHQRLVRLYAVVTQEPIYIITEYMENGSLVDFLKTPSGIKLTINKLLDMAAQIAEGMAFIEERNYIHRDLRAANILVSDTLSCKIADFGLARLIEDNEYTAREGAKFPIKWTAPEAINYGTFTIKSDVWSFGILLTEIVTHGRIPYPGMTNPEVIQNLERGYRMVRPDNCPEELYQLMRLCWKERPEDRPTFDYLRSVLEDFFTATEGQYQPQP

Structure (SMILES) | IC50 (LCK) | IC50 (SRC) | IC50 (JAK3) | IC50 (EGFR) | IC50 (TEC)
C[C@@H]1[C@H](NC(=O)c2cc(C(C)(C)C)on2)CCCN1c1cnc(C(N)=O)c(Nc2cnn(C)c2)n1 [Example D-247, 5-[(2R,3R)-3-(5-tert-butyl-1,2-oxazole-3-amido)-2-methylpiperidin-1-yl]-3-[(1-methyl-1H-pyrazol-4-yl)amino]pyrazine-2-carboxamide] | 100 to 1000 nM | 100 to 1000 nM | 1000 to 10000 nM | 1000 to 10000 nM | 10 to 100 nM
C[C@@H]1[C@H](NC(=O)N(C)C2CC2)CCCN1c1cnc(C(N)=O)c(Nc2cnn(C)c2)n1 [Example D-314, 5-[(2R,3R)-3-{[cyclopropyl(methyl)carbamoyl]amino}-2-methylpiperidin-1-yl]-3-[(1-methyl-1H-pyrazol-4-yl)amino]pyrazine-2-carboxamide] | 100 to 1000 nM | 10 to 100 nM | 1000 to 10000 nM | 1000 to 10000 nM | 10 to 100 nM
C[C@@H]1[C@H](NC(=O)c2cc3n(n2)CCC3)CCCN1c1cnc(C(N)=O)c(Nc2cnn(C)c2)n1 [Example D-263, 3-[(1-methyl-1H-pyrazol-4-yl)amino]-5-[(2R,3R)-2-methyl-3-{4H,5H,6H-pyrrolo[1,2-b]pyrazole-2-amido}piperidin-1-yl]pyrazine-2-carboxamide] | 10 to 100 nM | 10 to 100 nM | 1000 to 10000 nM | 100 to 1000 nM | ≤ 10 nM
CCN(C)C(=O)N[C@@H]1CCCN(c2cnc(C(N)=O)c(Nc3cnn(C)c3)n2)[C@@H]1C [Example D-304, 5-[(2R,3R)-3-{[ethyl(methyl)carbamoyl]amino}-2-methylpiperidin-1-yl]-3-[(1-methyl-1H-pyrazol-4-yl)amino]pyrazine-2-carboxamide] | 100 to 1000 nM | 100 to 1000 nM | 1000 to 10000 nM | 1000 to 10000 nM | 10 to 100 nM

— patent publication US20210070748A1, “INHIBITORS OF BRUTONS TYROSINE KINASE” (Pharmacyclics LLC, priority 2015, published 2021)
